Data taken from ChEMBL document CHEMBL1131841, “Hydroxyoxazolidines as alpha-aminoacetaldehye equivalents: novel inhibitors of calpain” (Bioorg Med Chem Lett, 1999).
Where a SMILES comes first, the peptide text is derived from it. [ ]: non-standard residue; d: D form. The star is where a group is joined. ξ: configuration not given here. NMeF = CN[C@@H](Cc1ccccc1)C(=O)O; Cbz = O=C(OCc1ccccc1)*; ξV = CC(C)C(N)C(=O)O

Tests used:
[1] = target: T1, Calpain-1 catalytic subunit (Homo sapiens, UniProt P07384); experiment: Tested for inhibitory activity against calpain.
T1 sequence (P07384 whole entry): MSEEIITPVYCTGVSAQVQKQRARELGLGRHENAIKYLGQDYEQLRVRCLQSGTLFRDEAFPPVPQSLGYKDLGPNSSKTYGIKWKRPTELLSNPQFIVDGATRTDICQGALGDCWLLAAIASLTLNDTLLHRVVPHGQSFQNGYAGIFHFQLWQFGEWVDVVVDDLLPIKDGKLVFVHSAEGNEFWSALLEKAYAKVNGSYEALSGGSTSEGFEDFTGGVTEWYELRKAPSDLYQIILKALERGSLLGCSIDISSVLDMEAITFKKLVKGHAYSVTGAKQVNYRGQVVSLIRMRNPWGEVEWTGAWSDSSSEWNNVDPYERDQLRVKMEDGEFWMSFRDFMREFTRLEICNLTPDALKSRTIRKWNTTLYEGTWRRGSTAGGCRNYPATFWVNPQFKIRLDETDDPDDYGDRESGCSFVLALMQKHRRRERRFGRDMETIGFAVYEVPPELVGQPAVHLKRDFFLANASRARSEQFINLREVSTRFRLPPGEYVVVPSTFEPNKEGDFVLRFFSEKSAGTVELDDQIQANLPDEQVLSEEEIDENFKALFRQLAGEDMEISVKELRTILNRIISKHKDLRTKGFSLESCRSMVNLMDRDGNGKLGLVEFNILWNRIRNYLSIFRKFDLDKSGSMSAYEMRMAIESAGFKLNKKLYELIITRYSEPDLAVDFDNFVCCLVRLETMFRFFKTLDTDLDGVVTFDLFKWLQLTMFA

[2] = target: T1, Calpain-1 catalytic subunit; experiment: Tested for inhibitory activity against calpain; NA means Not active
Cathepsin B = Cathepsin B (Bos taurus, UniProt P07688); experiment: Tested for inhibitory activity against bovine cathepsin B.
[3] = target: T1, Calpain-1 catalytic subunit; experiment: Tested for inhibitory activity against calpain

| SMILES | Ki [1] | further results |
| --- | --- | --- |
| CC(C)C(NC(=O)OCc1ccccc1)C(=O)N(C)[C@H](C=O)Cc1ccccc1 (stereo not given in full) (Cbz-[ξV]-[NMeF]-aldehyde) | 400 nM |  |
| O=C(N[C@H]1CCC[C@H]2O[C@@H](O)[C@H](Cc3ccccc3)N2C1=O)OCc1ccccc1.O=C(N[C@H]1CCC[C@H]2O[C@H](O)[C@@H](Cc3ccccc3)N2C1=O)OCc1ccccc1 | 1500 nM |  |
| O=C1c2ccccc2C(=O)N1[C@H]1CCC[C@H]2O[C@@H](O)[C@H](Cc3ccccc3)N2C1=O.O=C1c2ccccc2C(=O)N1[C@H]1CCC[C@H]2O[C@H](O)[C@@H](Cc3ccccc3)N2C1=O | 3200 nM |  |
| CC(C)C(NC(=O)OCc1ccccc1)C(=O)N1CC[C@@H](O)[C@@H]1Cc1ccccc1 (stereo not given in full) |  | Ki [2]: Not Active |
| CC(C)C(NC(=O)OCc1ccccc1)C(=O)N1CO[C@@H](O)[C@@H]1Cc1ccccc1 (stereo not given in full) | 33 nM | Ki (Cathepsin B): 120 nM |
| CC(C)C(NC(=O)OCc1ccccc1)C(=O)N1C(=O)C[C@H](O)[C@@H]1Cc1ccccc1 (stereo not given in full) |  | Ki [2]: Not Active |
| CC(C)C(NC(=O)OCc1ccccc1)C(=O)N(CO)[C@H](C=O)Cc1ccccc1 (stereo not given in full) | 400 nM |  |
| CC(C)[C@@H](NC(=O)OCc1ccccc1)C(=O)N1CCO[C@@H](O)[C@@H]1Cc1ccccc1 | 56000 nM |  |
| CC(=O)O[C@@H]1OCN(C(=O)C(NC(=O)OCc2ccccc2)C(C)C)[C@H]1Cc1ccccc1 (stereo not given in full) |  | Ki [3]: 2000 nM |
